Experiments:
[1] = system: Limulus amoebocyte lysate; assay: Limulus test (endotoxic type activity); details: gel formation after 20 minutes at 37° C.
Experimental: For this purpose, 0.1 ml of the Limulus amoebocyte lysate preparation (marketed by the MALLINCKRODT Company, at St. LOUIS, U.S.A.) was mixed with an equal volume of the tested product at various concentrations in solution in apyrogenic distilled water. The vessels used were also made apyrogenic by dry heating in the oven, at 180° C., for 2 hours.
After incubating the mixture for 20 minutes at 37° C. in tubes, the formation of gel characteristics of the presence of endotoxin was estimated.

Listeria monocytogenes = assay: Liposome forms: anti-Listeria activity; type: in vivo; details: mice, 1.10^3 Listeria i.v.
Experimental: The tests were carried out under the conditions of (5), using a dose of Listeria monocytogen, known to cause typically a cellular type infection.
The treatment of the mice and the inoculation were carried out by the intravenous route. The products were injected in the liposome form at the indicated doses. The controls only received isotonic solution.
The dose of Listeria administered was, in all the tests, 1.10^3 cells.
The tests whose results are given below were carried out by varying the interval of time separating the treatment of inoculation from the Listeria monocytogenes (either 1, either 4, or 8 days). The number of surviving mice at the 5th and at the 10th day following inoculation was followed, and the percentage protection determined as for the preceding tests.

[2] = Liposome forms: toxicity in the adrenalectomized mouse; type: in vivo; details: groups of six mice, 100 μg
Experimental: Pharmacological tests similar to the preceding ones were reproduced with MDP, MDP-L-Ala-eicosyl-ester and MDP-L-Ala-glyceryl-mycolate comparing the effects of administration in liposome form with those obtained for products in solution and with liposomes without muramyl-peptide.
The liposomes were prepared in the manner described above.
The products, the doses administered and their effect on the mortality of groups of six mice are indicated below.

Klebsiella = assay: Liposome forms: anti-Klebsiella activity (intravenous infection); type: in vivo; details: mice, i.v. treatment at D - 1, 1.5.10^3 Klebsiella i.v.
Experimental: Under the previously described conditions, with the exception of the infection produced by the intravenous injection of 1.5.10^3 Klebsiella, the tests are renewed to determine the anti-infectious action. The administrations in the form of solution and of liposome were prepared.

ovalbumin [3] = assay: Liposome forms: adjuvant character in guinea pigs, ovalbumin in aqueous solution; type: in vivo, Hartley male guinea pigs; details: ovalbumin 1 mg in foot pad
Experimental: The antigen was ovalbumin injected in aqueous solution in the foot pad of Hartley male guinea pigs at a volume of 0.1 ml in each rear paw, at the dose of 1 mg per guinea pig. The adjuvant preparations were injected simultaneously at the indicated doses. After three weeks, the animals received by the dermal route, in a volume of 0.1 ml, 0.025 mg of antigen. The diameter of the cutaneous reactions was measured after 48 hours. The animals were bled and the titers measured.

Ovalbumin [4] = assay: Adjuvant character in emulsion (delayed hypersensitivity and antibodies); type: in vivo, Hartley guinea pigs; details: guinea pigs, 50 μg in AlF emulsion with 1 mg ovalbumin; for Log2 of the hemagglutinating titer: serum day 21; for HSR (diameter of the delayed hypersensitivity reaction): skin test day 18, read 48 hours later
Experimental: The tests were carried out on batches of 6 male Hartley guinea pigs of 350 g. The administration was done by intradermal injection into the plantar pad of each of the rear paws. Ovalbumin (constituting the antigen) in the amount of 1 mg is prepared in 0.1 ml of an emulsion of saline isotonic solution, in any oily phase constituted either by the Freund imcomplete adjuvant (FIA), or by the complete adjuvant (FCA) formed by the FIA to which is added 0.1 mg of whole Mycobacterium smegmatis cells. The compound according to the invention was administered in the amount of 0.05 mg added in the emulsion containing the FIA.
Eighteen days after this immunization, possible delayed hypersensitivity reactions to the antigen were sought by injecting by the intradermal route 0.01 mg of ovalbumin in the side of the animals, and 48 hours later, the reaction of the point of injection was observed. The diameter in millimeters of the reaction thus caused was measured.
Twenty-one days after the injection, the animals were bled. […]

Klebsiella pneumoniae = assay: Anti-infectious activity with respect to Klebsiella; type: in vivo; details: mice, i.v. treatment 24h before 2 × 10^4 bacteria i.m.
Experimental: The survival of groups of inoculated mice under the above conditions and treated by means of the products according to the invention was followed.
The infecting dose was 2.10^4 Klebsiella; it was administered by the intramuscular route.
The administration of the tested product was carried out by the intravenous route in 0.2 ml of apyrogenic physiological solution, the controls receiving the solution alone. It was carried out 24 hours before the inoculation.
The percentage protection indicated is a difference of the percentages of survivors of the treated group with respect to the control group.

[5] = Toxicity (lethal dose 50) by parenteral administration in the adrenalectomised mouse; type: in vivo, mice
Experimental: The toxicity of the products according to the invention was investigated by parenteral administration in mice. It was observed that the toxic doses were of an order of magnitude very much higher than that of the doses at which these products manifest their activity. Thus the lethal dose 50 of the products according to the invention tested was higher than 5 mg/kg of animal in the adrenalectomised mouse, whose sensitivity to endotoxins is well-known.

BSA = assay: Liposome forms: adjuvant character in mice, BSA as antigen; type: in vivo; details: 10 μg
Experimental: (§1) Groups of 8 Swiss mice aged two months received, by sub-cutaneous injection (SC), 0.5 mg of antigen constituted by bovine serum albumin (BSA) with 0.1 mg or without the tested substance in an isotonic saline solution. This high dose of antigen, because it is situated at the limit of the paralyzing dose with respect to the immunitary response, results, for this reason, in a weak or zero response to the antigen only in the controls: It constitutes therefore a severe criterien to establish the activity of an adjuvant substance. Thirty days later, the mice received, by the same administrative route, a booster containing 0.1 mg of the same antigen.
(§2) The antibody level was determined, six days after the booster, by passive hemagglutination using sheep's red blood corpuscles treated with formalin and covered with the antigen studied according to the method described by A. A. HIRATA and M. W. BRANDISS (J. Immunol., 100, 641-648, 1968).
The series of tests was carried out on mice under the same conditions as indicated in (3)(a), using BSA as antigen.

[6] = system: bovine serum albumin (BSA); assay: Adjuvant character in the aqueous phase (antibody titer by passive hemagglutination); type: in vivo, Swiss mice; details: mice, 0.5 mg BSA with 0.1 mg tested substance SC in isotonic saline, booster day 30, titer at the 36th day
Experimental: as §1, §2
The antibody titer, represented by the maximum serum dilution agglutinating a given amount of sheep corpuscles, reaches a maximum at the 36th day and is established in the following manner: […]

ovalbumin [7] = assay: Liposome forms: adjuvant character in Wistar rats, ovalbumin; type: in vivo; details: ovalbumin 0.5 mg s.c., 200 μg
Experimental: The antigen was ovalbumin injected by the subcutaneous route in male Wistar rats in a volume of 0.5 ml at the dose of 0.5 mg. The adjuvant preparations were injected simultaneously, at the dose indicated. At day 20, the animals received a booster of 0.5 mg of antigen alone by the same route. The serums were drawn and tested under the same conditions as in the mouse with the appropriate antigen.

[8] = i.v. treatment at D - 1, dose 100 μg
[9] = i.v. treatment at D - 4, dose 100 μg
[10] = i.v. treatment at D - 8, dose 100 μg

Compound	% of protection (Listeria monocytogenes; [8]) [%]	Number of survivors D + 5 (Listeria monocytogenes; [8])	Number of survivors D + 10 (Listeria monocytogenes; [8])	% of protection (Listeria monocytogenes; [9]) [%]	Number of survivors D + 5 (Listeria monocytogenes; [9])	Number of survivors D + 10 (Listeria monocytogenes; [9])	% of protection (Listeria monocytogenes; [10]) [%]	Number of survivors D + 5 (Listeria monocytogenes; [10])	Number of survivors D + 10 (Listeria monocytogenes; [10])	Number of dead mice [2]	% of protection (Klebsiella; 1 μg) [%]	Number of survivors at D + 3 (Klebsiella; 1 μg)	Number of survivors at D + 5 (Klebsiella; 1 μg)	Number of survivors at D + 8 (Klebsiella; 1 μg)	% of protection (Klebsiella; 10 μg) [%]	Number of survivors at D + 3 (Klebsiella; 10 μg)	Number of survivors at D + 5 (Klebsiella; 10 μg)	Number of survivors at D + 8 (Klebsiella; 10 μg)	% of protection (Klebsiella; 100 μg) [%]	Number of survivors at D + 3 (Klebsiella; 100 μg)	other results
CCCCCCCCCCCCCCCCCCCCOC(=O)[C@H](C)NC(=O)CC[C@@H](NC(=O)[C@H](C)NC(=O)[C@@H](C)O[C@H]1[C@H](O)[C@@H](CO)OC(O)[C@@H]1NC(C)=O)C(N)=O (stereo partly drawn) [MDP--L--Ala--eicosyl--ester, eicosyl ester of N-acetyl-muramyl-L-alanyl-D-isoglutamine-L-alanine]	0	3	0	0	4	4	0	2	2	0/6	25	4	4	4	31	13	9	9	63	14	Limulus test result (concentration of the tested product) [1]: 10 µg/mL; Number of survivors at D + 5 (Klebsiella; 100 μg): 14; Number of survivors at D + 8 (Klebsiella; 100 μg): 14; Log2 of the hemagglutinating titer (ovalbumin [3]; 200 μg): 7.33 ± 1.51; HSR (diameter of the cutaneous reactions; in parentheses number of animals showing the reaction) (ovalbumin [3]; 200 μg, read after 48 hours): 0; Log2 of the hemagglutinating titer (Ovalbumin [4]): 11.25 ± 1.14; HSR (diameter of the delayed hypersensitivity reaction) (Ovalbumin [4]): 6 ± 4 millimeters; % of protection (Klebsiella pneumoniae; dose per mouse 10): 46%; Number of survivors at day 3 (Klebsiella pneumoniae; dose per mouse 10): 18; Number of survivors at day 5 (Klebsiella pneumoniae; dose per mouse 10): 14; Number of survivors at day 8 (Klebsiella pneumoniae; dose per mouse 10): 14; % of protection (Klebsiella pneumoniae; dose per mouse 100): 70%; Number of survivors at day 3 (Klebsiella pneumoniae; dose per mouse 100): 23; Number of survivors at day 5 (Klebsiella pneumoniae; dose per mouse 100): 23; Number of survivors at day 8 (Klebsiella pneumoniae; dose per mouse 100): 20; lethal dose 50 [5]: higher than 5 mg/kg; Log2 of the hemagglutinating titer (BSA): 3.64 ± 1.15; Log2 hemagglutinating titer [6]: 7.11 ± 2.03
N-acetyl-muramyl-L-alanyl-D-isoglutaminyl-L-alanylglyceryl-mycolate [MDP--L--Ala--glyceryl--mycolate]	0	3	2	0	1	0	0	1	0	0/6	0	2	2	2	25	9	8	8	63	8	Number of survivors at D + 5 (Klebsiella; 100 μg): 7; Number of survivors at D + 8 (Klebsiella; 100 μg): 7; HSR (diameter of the cutaneous reactions) (ovalbumin [3]; dose not given): 0; Log2 of the hemagglutinating titer (ovalbumin [3]; dose not given): 8.64 ± 1.83; Log2 of the hemagglutinating titer (ovalbumin [7]): 7.64 ± 1.90; Log2 of the hemagglutinating titer (Ovalbumin [4]): 12.77 ± 0.83; HSR (diameter of the delayed hypersensitivity reaction) (Ovalbumin [4]): 21± 3 millimeters; % of protection (Klebsiella pneumoniae; dose per mouse 10): 33%; Number of survivors at day 3 (Klebsiella pneumoniae; dose per mouse 10): 5; Number of survivors at day 5 (Klebsiella pneumoniae; dose per mouse 10): 4; Number of survivors at day 8 (Klebsiella pneumoniae; dose per mouse 10): 4; % of protection (Klebsiella pneumoniae; dose per mouse 100): 79%; Number of survivors at day 3 (Klebsiella pneumoniae; dose per mouse 100): 23; Number of survivors at day 5 (Klebsiella pneumoniae; dose per mouse 100): 23; Number of survivors at day 8 (Klebsiella pneumoniae; dose per mouse 100): 23; lethal dose 50 [5]: higher than 5 mg/kg; Log2 of the hemagglutinating titer (BSA): 2.07 ± 1.13; Log2 hemagglutinating titer [6]: 7.47 ± 1.17
